# Starred links: 1 amine or outer side, 2 acyl side, 3 side chain; linkers in the order of their positions; H or OH if unused. Positions of bridges follow the written chain, without caps; N, C: chain ends. Non-standard residues stand in square brackets, D forms with d. Residues, ends and D or L forms follow the SMILES beside them. Groups on a side chain read outwards from the residue. *: point of attachment. X16 = O=C(O)CCOCCOCCOCCOCCOCCOCCOCCOCCOCCOCCOCCOCCOCCOCCOCCOCCOCCOCCOCCOCCOCCC(=O)*; Ala(1-CH2CO2H-4-piperidyl) = N[C@@H](CC1CCN(CC(=O)O)CC1)C(=O)O; Ala(piperidin-4-yl) = O=C([C@H](CC1CCN([*:3])CC1)N[*:1])[*:2]; DOTA = O=C(O)CN1CCN(CC(=O)O)CCN(CC(=O)*)CCN(CC(=O)O)CC1; Trp(5-F) = N[C@@H](Cc1c[nH]c2ccc(F)cc12)C(=O)O; X1 = C[C@@H](c1ccccc1)[C@H](N[*:1])C(=O)[*:2]; Trp(1-Me) = Cn1cc(C[C@H](N)C(=O)O)c2ccccc21; Phe(4-F) = N[C@@H](Cc1ccc(F)cc1)C(=O)O; Ala(4-THP) = N[C@@H](CC1CCOCC1)C(=O)O; Phe(2-Me) = Cc1ccccc1C[C@H](N)C(=O)O; Val(3-OH) = CC(C)(O)[C@H](N)C(=O)O; Aad = N[C@@H](CCCC(=O)O)C(=O)O; Cha = N[C@@H](CC1CCCCC1)C(=O)O; Tle = CC(C)(C)[C@H](N)C(=O)O; hLeu = CC(C)CC[C@H](N)C(=O)O; Nle = CCCC[C@H](N)C(=O)O
# Target: T1, human 4lg B7-H3 (Homo sapiens, UniProt Q5ZPR3)
# T1 sequence (Q5ZPR3 29-534): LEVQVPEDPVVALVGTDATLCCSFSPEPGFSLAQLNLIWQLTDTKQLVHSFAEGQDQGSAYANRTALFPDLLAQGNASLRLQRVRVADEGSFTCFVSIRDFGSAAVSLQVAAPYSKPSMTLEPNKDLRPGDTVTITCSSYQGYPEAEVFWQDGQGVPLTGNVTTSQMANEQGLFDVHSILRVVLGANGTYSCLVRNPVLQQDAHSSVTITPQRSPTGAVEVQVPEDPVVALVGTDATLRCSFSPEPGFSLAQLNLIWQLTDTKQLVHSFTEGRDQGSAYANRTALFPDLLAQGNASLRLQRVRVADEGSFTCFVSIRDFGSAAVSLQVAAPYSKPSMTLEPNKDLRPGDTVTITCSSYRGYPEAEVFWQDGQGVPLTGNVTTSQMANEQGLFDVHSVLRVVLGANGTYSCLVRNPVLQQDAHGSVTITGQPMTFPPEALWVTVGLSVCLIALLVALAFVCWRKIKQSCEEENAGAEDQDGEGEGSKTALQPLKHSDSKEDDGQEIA
# Assay: Affinity determination by surface plasmon resonance (SPR) to 4Ig B7-H3
# Settings: SPR KD—25° C., 4Ig B7-H3; 25° C. flow cell temperature
row,Kd [nM],Structure (SMILES)
1,1 to 10,"CC(=O)N[C@@H](CCC(C)C)C(=O)N[C@@H](Cc1ccc(O)cc1)C(=O)N[C@H]1CSSC[C@@H](C(=O)N[C@@H](Cc2c[nH]c3ccc(F)cc23)C(=O)N[C@@H](Cc2ccccc2C)C(=O)N[C@H](C(=O)N[C@H](CCCCNC(=O)CN2CCN(CC(=O)O)CCN(CC(=O)O)CCN(CC(=O)O)CC2)C(N)=O)[C@@H](C)O)NC(=O)[C@H](Cc2ccc(O)cc2)NC(=O)[C@H](C(C)C)NC(=O)[C@H](CC(=O)O)NC(=O)[C@H](Cc2ccc(O)cc2)NC(=O)[C@H](CCCCN)NC(=O)CNC(=O)[C@H](C(C)C)NC1=O [compound 165, Ac-hLeu-Y-C-V-G-K-Y-D-V-Y-C-5FW-2MePhe-Thr-dLys(DOTA)-CONH2] (Ac-[hLeu]YCVGKYDVYC[Trp(5-F)][Phe(2-Me)]T[dK](DOTA)-NH2; disulfide 3-11)"
2,100 to 300,"CCCC[C@H](NC(C)=O)C(=O)N[C@@H](Cc1ccc(O)cc1)C(=O)N[C@H]1CSSC[C@@H](C(=O)N[C@@H](Cc2c[nH]c3ccccc23)C(=O)N[C@@H](CC2CCCCC2)C(=O)N[C@H](C(=O)N[C@H](CCCCNC(=O)CN2CCN(CC(=O)O)CCN(CC(=O)O)CCN(CC(=O)O)CC2)C(N)=O)[C@@H](C)O)NC(=O)[C@H](Cc2ccc(O)cc2)NC(=O)[C@H](C(C)C)NC(=O)[C@H](CC(=O)O)NC(=O)[C@H](Cc2ccc(O)cc2)NC(=O)[C@H](CCCCN)NC(=O)CNC(=O)[C@H](C(C)C)NC1=O [compound 82, Ac-Nle-Y-C-V-G-K-Y-D-V-Y-C-W-ChA-Thr-dLys(DOTA)-CONH2] (Ac-[Nle]YCVGKYDVYCW[Cha]T[dK](DOTA)-NH2; disulfide 3-11)"
3,10 to 100,"CC(=O)N[C@@H](CCC(C)C)C(=O)N[C@@H](Cc1ccc(O)cc1)C(=O)N[C@H]1CSSC[C@@H](C(=O)N[C@@H](Cc2c[nH]c3ccccc23)C(=O)N[C@@H](Cc2ccccc2)C(=O)N[C@H](C(N)=O)[C@@H](C)O)NC(=O)[C@H](Cc2ccc(O)cc2)NC(=O)[C@H](CCCCNC(=O)CN2CCN(CC(=O)O)CCN(CC(=O)O)CCN(CC(=O)O)CC2)NC(=O)[C@H](CC(=O)O)NC(=O)[C@H](Cc2ccc(O)cc2)NC(=O)[C@H](CCCCN)NC(=O)CNC(=O)[C@H](C(C)C)NC1=O [compound 143, Ac-hLeu-Y-C-V-G-K-Y-D-Lys(DOTA)-Y-C-W-F-Thr-CONH2] (Ac-[hLeu]YCVGKYDK(DOTA)YCWFT-NH2; disulfide 3-11)"

# Continued, compound first:
row,Structure (SMILES),Kd [nM]
1,"CC(=O)N[C@@H](CCC(C)C)C(=O)N[C@@H](Cc1ccc(O)cc1)C(=O)N[C@H]1CSSC[C@@H](C(=O)N[C@@H](Cc2c[nH]c3ccccc23)C(=O)N[C@@H](Cc2ccccc2)C(=O)N[C@H](C(N)=O)[C@@H](C)O)NC(=O)[C@H](Cc2ccc(O)cc2)NC(=O)[C@H](C(C)C)NC(=O)[C@H](CC(=O)O)NC(=O)[C@H](CCCCNC(=O)CN2CCN(CC(=O)O)CCN(CC(=O)O)CCN(CC(=O)O)CC2)NC(=O)[C@H](CCCCN)NC(=O)CNC(=O)[C@H](C(C)C)NC1=O [compound 144, Ac-hLeu-Y-C-V-G-K-Lys(DOTA)-D-V-Y-C-W-F-Thr-CONH2] (Ac-[hLeu]YCVGKK(DOTA)DVYCWFT-NH2; disulfide 3-11)",10 to 100
2,"CC(=O)N[C@@H](CCC(C)C)C(=O)N[C@@H](Cc1ccc(O)cc1)C(=O)N[C@H]1CSSC[C@@H](C(=O)N[C@@H](Cc2c[nH]c3ccc(F)cc23)C(=O)N[C@@H](Cc2ccccc2)C(=O)N[C@H](C(=O)N[C@H](CCCCNC(=O)CN2CCN(CC(=O)O)CCN(CC(=O)O)CCN(CC(=O)O)CC2)C(N)=O)[C@@H](C)O)NC(=O)[C@H](Cc2ccc(F)cc2)NC(=O)[C@H](C(C)C)NC(=O)[C@H](CC(=O)O)NC(=O)[C@H](Cc2ccc(O)cc2)NC(=O)[C@H](CCCCN)NC(=O)CNC(=O)[C@H](C(C)C)NC1=O [compound 172, Ac-hLeu-Y-C-V-G-K-Y-D-V-4FPhe-C-5FW-F-Thr-dLys(DOTA)-CONH2] (Ac-[hLeu]YCVGKYDV[Phe(4-F)]C[Trp(5-F)]FT[dK](DOTA)-NH2; disulfide 3-11)",1 to 10
3,"CCCC[C@H](NC(C)=O)C(=O)N[C@@H](Cc1ccc(O)cc1)C(=O)N[C@H]1CSSC[C@@H](C(=O)N[C@@H](Cc2cn(C)c3ccccc23)C(=O)N[C@@H](Cc2ccccc2)C(=O)N[C@H](C(=O)N[C@H](CCCCNC(=O)CN2CCN(CC(=O)O)CCN(CC(=O)O)CCN(CC(=O)O)CC2)C(N)=O)[C@@H](C)O)NC(=O)[C@H](Cc2ccc(O)cc2)NC(=O)[C@H](C(C)C)NC(=O)[C@H](CC(=O)O)NC(=O)[C@H](Cc2ccc(O)cc2)NC(=O)[C@H](CCCCN)NC(=O)CNC(=O)[C@H](C(C)C)NC1=O [compound 132, Ac-Nle-Y-C-V-G-K-Y-D-V-Y-C-Trp(Me)-F-Thr-dLys(DOTA)-CONH2] (Ac-[Nle]YCVGKYDVYC[Trp(1-Me)]FT[dK](DOTA)-NH2; disulfide 3-11)",1 to 10

# Same assay, conditions: SPR KD—37° C., 4Ig B7-H3; 37° C. flow cell temperature
row,Kd [nM],Structure (SMILES)
1,< 1,"CC(=O)N[C@@H](CCC(C)C)C(=O)N[C@@H](Cc1ccc(O)cc1)C(=O)N[C@H]1CSSC[C@@H](C(=O)N[C@@H](Cc2c[nH]c3ccc(F)cc23)C(=O)N[C@H](C(=O)N[C@H](C(=O)N[C@H](CCCCNC(=O)[C@H](CCCC(=O)O)NC(=O)CN2CCN(CC(=O)O)CCN(CC(=O)O)CCN(CC(=O)O)CC2)C(=O)O)C(C)(C)O)[C@@H](C)c2ccccc2)NC(=O)[C@H](Cc2ccc(O)cc2)NC(=O)[C@H](C(C)C)NC(=O)[C@H](CC(=O)O)NC(=O)[C@H](CC2CCOCC2)NC(=O)[C@H](CC2CCN(CC(=O)O)CC2)NC(=O)CNC(=O)[C@H](C(C)(C)C)NC1=O [compound 525, Ac-hLeu-Y-C-Tbg-G-Pip(CH2COOH)Ala-ThpA-D-V-Y-C-5FW-[(2S, 3S)beta-Me-Phe]-hydroxyVal-dLys(hGlu-DOTA)-COOH] (Ac-[hLeu]YC[Tle]G[Ala(1-CH2CO2H-4-piperidyl)][Ala(4-THP)]DVYC[Trp(5-F)][X1][Val(3-OH)][dK]([Aad-DOTA])-OH; disulfide 3-11)"
2,< 1,"CC(=O)N[C@@H](CCC(C)C)C(=O)N[C@@H](Cc1ccc(O)cc1)C(=O)N[C@H]1CSSC[C@@H](C(=O)N[C@@H](Cc2c[nH]c3ccc(F)cc23)C(=O)N[C@H](C(=O)N[C@H](C(=O)N[C@H](CCCCNC(=O)[C@H](CCC(=O)O)NC(=O)CN2CCN(CC(=O)O)CCN(CC(=O)O)CCN(CC(=O)O)CC2)C(=O)O)C(C)(C)O)[C@@H](C)c2ccccc2)NC(=O)[C@H](Cc2ccc(O)cc2)NC(=O)[C@H](C(C)C)NC(=O)[C@H](CC(=O)O)NC(=O)[C@H](CC2CCOCC2)NC(=O)[C@H](CC2CCNCC2)NC(=O)CNC(=O)[C@H](C(C)(C)C)NC1=O [compound 498, Ac-hLeu-Y-C-Tbg-G-PipAla-ThpA-D-V-Y-C-5FW-[(2S, 3S)beta-Me-Phe]-hydroxyVal-dLys(Glu-DOTA)-COOH] (Ac-[hLeu]YC[Tle]G[Ala(piperidin-4-yl)][Ala(4-THP)]DVYC[Trp(5-F)][X1][Val(3-OH)][dK]([Glu-DOTA])-OH; disulfide 3-11)"
3,10 to 100,"CC(=O)N[C@@H](CCC(C)C)C(=O)N[C@@H](Cc1ccc(O)cc1)C(=O)N[C@H]1CSSC[C@@H](C(=O)N[C@@H](Cc2c[nH]c3ccc(F)cc23)C(=O)N[C@@H](Cc2ccccc2)C(=O)N[C@H](C(=O)N[C@H](CCCCNC(=O)CN2CCN(CC(=O)O)CCN(CC(=O)O)CCN(CC(=O)O)CC2)C(=O)O)[C@@H](C)O)NC(=O)[C@H](Cc2ccc(O)cc2)NC(=O)[C@H](C(C)C)NC(=O)[C@H](CC(=O)O)NC(=O)[C@H](CC2CCOCC2)NC(=O)[C@H](CCCCNC(=O)CCOCCOCCOCCOCCOCCOCCOCCOCCOCCOCCOCCOCCOCCOCCOCCOCCOCCOCCOCCOCCOCCC(=O)O)NC(=O)CNC(=O)[C@H](C(C)(C)C)NC1=O [compound 341, Ac-hLeu-Y-C-Tbg-G-K(PEG21-COOH)-ThpA-D-V-Y-C-5FW-F-Thr-dLys(DOTA)-COOH] (Ac-[hLeu]YC[Tle]GK(X16)[Ala(4-THP)]DVYC[Trp(5-F)]FT[dK](DOTA)-OH; disulfide 3-11)"

# Reference: patent US20250296959A1, “B7-H3 TARGETING PEPTIDES AND CONSTRUCTS THEREOF” (Mariana Oncology Inc., priority 2024, published 2025)
